Experiments:
[1] = test system: nitric oxide content of myocardium; assay: myocardial nitrite and nitrate content after ischemia-reperfusion; type: in vivo, rat; details: 1 μg/kg pre-ischemic
Protocol: (§1) To determine whether parstatin (1-26) protects the heart by a mechanism involving nitric oxide synthase (NOS), rats were treated with L-NMA (15 μg/Kg, a general NOS inhibitor), with or without parstatin (1-26) (1 μg/Kg) prior to ischemia. […] The role of parstatin (1-26) in endothelial NOS activation was further evaluated by measuring the phosphorylation of Ser1177. In these experiments, the left ventricular free wall tissue was homogenized and immunoblot analysis was performed using an anti-phospho-endothelial NOS (Ser1177) primary antibody (Cell Signaling Technology, Danvers, Mass.). […] In addition, nitrite and nitrate content, a marker of endothelial NOS activity, was measured from both ischemic and non-ischemic tissues. Ischemia and 120 min reperfusion caused an increase in the production of NO in the ischemic tissue from the control group when compared to the sham group (FIG. 25D). […] Pre-ischemic treatment with parstatin (1-26) further increased NO content in the ischemic tissue by an additional 1.4-fold over control values and 2.0-fold over sham treated values.

[2] = test system: Akt (Ser473), endothelial NOS (Ser1177); assay: immunoblot of phospho-Akt and phospho-eNOS in left ventricle after ischemia-reperfusion; type: in vivo, rat
Protocol: To determine whether the cardioprotective effect of parstatin (1-26) is mediated through the PI3K/Akt pathway, rats were treated with wortmannin (15 μg/Kg, a potent and specific PI3K inhibitor) alone or in combination with parstatin fragment 1-26 (1 μg/Kg). Wortmannin abrogated the cardioprotective effects of parstatin (1-26) (FIG. 24B). In addition, the left ventricular free wall tissue was homogenized and immunoblot analysis was performed using an anti-phospho-Akt (Ser473) primary antibody (Cell Signaling Technology, Danvers, Mass.). […] Co-treatment with wortmannin blocked parstastin (1-26)-mediated Akt phorsphorylation (FIG. 24C).
as §1

[3] = test system: cGMP content of myocardium; assay: myocardial cGMP ELISA after ischemia-reperfusion; type: in vivo, rat; details: 1 μg/kg, 120 min reperfusion
Protocol: To determine whether […] (1-26) protects the heart by a mechanism involving soluble guanylyl cyclase (sGC), rats were treated with ODQ (1 mg/kg, a sGC inhibitor) with or without […] (1-26) (1 μg/kg) prior to ischemia. ODQ abolished the reduction in infarct size caused by […] (1-26), but had no effect alone (FIG. 26A). Tissue accumulation of cGMP was measured after 120 min reperfusion from ischemic and non-ischemic myocardium. In these experiments, the cGMP was measured in the rat hearts by specific ELISA kits according to the manufacturer's instructions (Cayman Chemical, Ann Arbor, Mich.). The hearts (n=6/group) were excised after 120 min reperfusion and immediately frozen in liquid nitrogen, then stored at -80° C. until assayed. Frozen myocardial tissue samples in liquid nitrogen were ground to a fine powder in a stainless-steel mortar. Frozen tissue was dropped into 5-10 volumes (ml of solution/gram of tissue) of 5% trichloroacetic acid (TCA) in water. The samples were homogenized on ice […] using a polytron-type homogenizer. Centrifugation was at 30,000 r.p.m. at room temperature and the supernatant was collected for quantitative immunoassay of cGMP. […] (1-26) treatment group when compared to the control and sham treated groups respectively (FIG. 26B). No difference in cGMP tissue content was observed between the ischemic and non-ischemic zones within the control groups, however, […]

HUVEC cells [4] = assay: Fibrin gel in vitro angiogenesis assay; type: cell-based, human; details: VEGF/bFGF-induced, 24 h; other peptides 10 μM
Protocol: The ability of endothelial cells to form three-dimensional structures was analyzed using a Fibrin gel in vitro angiogenesis assay kit (Chemicon International Inc. Temecula, Calif.). Fibrin gels were formed in 48-well plates by mixing fibrinogen and thrombin solutions, according to manufacturer instructions. Cells (40,000 cells/well) were then added and cultured in medium containing 2% FBS for 18 h. After the addition of a second layer of fibrin gel, endothelial cells sandwiched within fibrin gels were cultured in serum-free medium containing 0.5% bovine serum albumin (BSA) and the combination of VEGF/bFGF for 24 h. Where indicated, parstatin (1-41) or other indicated peptides were added. Capillary-like network was photographed and measured.

HUVEC cells [5] = assay: modified Boyden's chamber cell migration assay; type: cell-based, human; details: toward 5% FBS, 6 h; other peptides 10 μM
Protocol: HUVEC cell migration was assessed using a modified Boyden's chamber assay, i.e., in Transwell cell culture chambers (Corning Life Sciences, Acton, Mass.). Briefly, polycarbonate filters with 8 μm pores were used to separate the upper and the lower chambers. Cells were added to the upper compartment at a density of 10,000 cells/100 μl in serum-free medium containing 0.5% BSA and incubated for 6 h. Directional migration (chemotaxis) in the lower chamber was induced by addition of medium containing 5% FBS to the lower chamber. Where indicated parstatin or other peptides were added to lower chamber.
Cells on the filters were fixed and stained. The non-migrated cells (cells in upper surface) were removed by wiping with cotton swabs. The cells on the lower surface were counted manually under microscope in six predetermined fields. Parstatin (1-41) attenuated chemotactic cell migration through microporous membrane in response to serum (FIG. 3C). When human parstatin was combined with 5% FBS, the number of migrated cells was reduced in concentration-dependent manner.

HUVEC cells [6] = assay: [3H]-thymidine incorporation (DNA synthesis); type: cell-based, human; details: serum, bFGF or VEGF; comparison peptides 10 μM
Protocol: The ability of parstatin (1-41) to inhibit DNA synthesis of endothelial cells was assessed in thymidine incorporation assays. HUVEC cells were grown until 60-80% confluent in 24-well plates. Cells were treated with indicated peptides in serum-free medium containing either 0.5% BSA, or VEGF, or bFGF, or medium containing 5% FBS, or epidermal growth factor (EGF), or heparin-binging EGF (HB-EGF) for 18 hours. All cells were pulsed with 0.5 μCi/ml [3H]-thymidine (ICN Biomedicals Inc., Irvine Calif.) for additional 6 h. Radioactivity incorporated into DNA was determined in liquid scintillation counter.

MGPRRLLLVAACFSLCGPLLSARTRA (listed as Homo sapiens) [parstatin (1-26)]
NO levels in non-ischemic tissue compared to control and sham rats [1]: No differences | NO content in the ischemic tissue over control values ([1]; 120 min reperfusion): 1.4 fold | NO content in the ischemic tissue over sham treated values ([1]; 120 min reperfusion): 2.0 fold | phosphorylation of Akt/Ser473 ([2]; 1 μg/kg pre-ischemic, 5 min reperfusion, vs control rats): increased phosphorylation | endothelial NOS phosphorylation (Ser1177) ([2]; 1 μg/kg, 5 min reperfusion): increased endothelial NOS phosphorylation | Ser1177 phosphorylation with wortmannin ([2]; wortmannin): blocked | Akt phosphorylation with wortmannin co-treatment ([2]; wortmannin 15 μg/kg): blocked | cGMP production in the ischemic zone vs non-ischemic zone [3]: 2.2 fold | tissue accumulation of cGMP in the ischemic tissue compared to control [3]: 4.6 fold | tissue accumulation of cGMP in the ischemic tissue compared to sham [3]: 10.9 fold

TRARRPESKATNATLDPR (listed as Homo sapiens) [parstatin (24-41), 24-41 (18 amino acids) of human parstatin, hydrophilic fragment]
capillary-like network (total capillary tube length) in fibrin gels (HUVEC cells [4]): did not affect | chemotactic cell migration (HUVEC cells [5]): without effect | DNA synthesis in HUVEC cells (HUVEC cells [6]): did not cause any significant effect
